Where “and” joins values, the source holds several entries; their conditions need not be identical. Identical values can stand only once. Toxic doses and inconclusive results are not listed. Rule for the calls: active = survival T/C of 150% or more; inactive = T/C below 125% in these data.
System: P388 leukemia ip, CD2F1 mice, survival T/C
Test: NCI In Vivo Anticancer Drug Screen. Data for tumor model P388 Leukemia (intraperitoneal) in CD2F1 (CDF1) mice
Details: endpoint: median survival time, higher = longer survival
Summary of the method: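 Mice carrying the transplanted tumor received test compound or vehicle. Survival was recorded in each group, and the value is the treated-group measurement divided by that of the vehicle-treated control group.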

[1] = dose: 25.0 mg/kg/injection, schedule: Q01DX009 (ip), vehicle: other
[2] = dose: 50.0 mg/kg/injection, schedule: Q01DX009 (ip), vehicle: other
[3] = dose: 100.0 mg/kg/injection, schedule: Q01DX009 (ip), vehicle: other
[4] = dose: 200.0 mg/kg/injection, schedule: Q01DX009 (ip), vehicle: other
[5] = dose: 400.0 mg/kg/injection, schedule: Q01DX009 (ip), vehicle: other
[6] = dose: 12.5 mg/kg/injection, schedule: Q01DX009 (ip), vehicle: saline
[7] = dose: 25.0 mg/kg/injection, schedule: Q01DX009 (ip), vehicle: saline
[8] = dose: 60.0 mg/kg/injection, schedule: Q01DX005 (ip), vehicle: Klucel (hydroxypropylcellulose) (HPC)
[9] = dose: 120.0 mg/kg/injection, schedule: Q01DX005 (ip), vehicle: Klucel (hydroxypropylcellulose) (HPC)
[10] = dose: 240.0 mg/kg/injection, schedule: Q01DX005 (ip), vehicle: Klucel (hydroxypropylcellulose) (HPC)
[11] = dose: 50.0 mg/kg/injection, schedule: Q01DX005 (ip), vehicle: saline with Tween-80
[12] = dose: 100.0 mg/kg/injection, schedule: Q01DX005 (ip), vehicle: saline with Tween-80
[13] = dose: 200.0 mg/kg/injection, schedule: Q01DX005 (ip), vehicle: saline with Tween-80
[14] = dose: 12.5 mg/kg/injection, schedule: Q01DX005 (ip), vehicle: saline with Tween-80
[15] = dose: 25.0 mg/kg/injection, schedule: Q01DX005 (ip), vehicle: saline with Tween-80
[16] = dose: 50.0 mg/kg/injection, schedule: Q01DX005 (ip), vehicle: Klucel (hydroxypropylcellulose) (HPC)
[17] = dose: 50.0 mg/kg/injection, schedule: Q01DX009 (ip), vehicle: saline
[18] = dose: 100.0 mg/kg/injection, schedule: Q01DX009 (ip), vehicle: saline
[19] = dose: 200.0 mg/kg/injection, schedule: Q01DX009 (ip), vehicle: saline
[20] = dose: 100.0 mg/kg/injection, schedule: Q01DX005 (ip), vehicle: Klucel (hydroxypropylcellulose) (HPC)
[21] = dose: 200.0 mg/kg/injection, schedule: Q01DX005 (ip), vehicle: Klucel (hydroxypropylcellulose) (HPC)
[22] = dose: 12.5 mg/kg/injection, schedule: Q01DX009 (ip), vehicle: saline with Tween-80
[23] = dose: 50.0 mg/kg/injection, schedule: Q01DX009 (ip), vehicle: saline with Tween-80
[24] = dose: 200.0 mg/kg/injection, schedule: Q01DX009 (ip), vehicle: saline with Tween-80
[25] = dose: 100.0 mg/kg/injection, schedule: Q01DX009 (ip), vehicle: saline with Tween-80

Measured: T/C

O=C(CNO)OCc1ccccc1
inactive: [1] 97 % of control | [2] 106 % of control | [3] 104 % of control | [4] 100 % of control | [5] 106 % of control

CCCC(=O)NN=C(C)C
inactive: [6] 104 % of control | [7] 109 % of control

COc1cccc(C2c3cc4c(cc3OC(C)(O)C2C)OCO4)c1OC (centres undefined)
inactive: [8] 103 % of control | [9] 97 % of control | [10] 95 % of control

O/N=C/c1cnns1
inactive: [11] 105 % of control | [12] 100 % of control | [13] 100 % of control

Cc1ccc2[nH]c3nc4cc(C)c(C)cc4nc3c2c1
inactive: dose: 6.25 mg/kg/injection, schedule: Q01DX005 (ip), vehicle: saline with Tween-80 93 % of control | [14] 93 % of control | [15] 87 % of control | [11] 96 % of control | [12] 105 % of control | [13] 108 % of control

O=S1(=O)CC23C=CC=CC2(CCCC3)C1Cl (centres undefined)
inactive: dose: 12.5 mg/kg/injection, schedule: Q01DX005 (ip), vehicle: Klucel (hydroxypropylcellulose) (HPC) 93 % of control | dose: 25.0 mg/kg/injection, schedule: Q01DX005 (ip), vehicle: Klucel (hydroxypropylcellulose) (HPC) 89 % of control | [16] 91 % of control

CCc1cn[nH]c(=O)c1
inactive: [17] 110 % of control | [18] 96 % of control | [19] 104 % of control

COc1cc(/C=C\C=O)cc(OC)c1OC
inactive: dose: 100.0 mg/kg/injection, schedule: Q04DX002 (ip), vehicle: saline with Tween-80 99 % of control | dose: 200.0 mg/kg/injection, schedule: Q04DX002 (ip), vehicle: saline with Tween-80 110 % of control | dose: 400.0 mg/kg/injection, schedule: Q04DX002 (ip), vehicle: saline with Tween-80 108 % of control

O=C(NC1C=Nc2ccc([N+](=O)[O-])cc2NC1=O)c1ccc(Cl)cc1 (centres undefined)
inactive: [8] 91 % of control | [9] 93 % of control | [10] 92 % of control

Cc1cc(-c2ccccc2)nc2nc3ccccc3n12
inactive: dose: 60.0 mg/kg/injection, schedule: Q01DX005 (ip), vehicle: saline with Tween-80 105 % of control | dose: 120.0 mg/kg/injection, schedule: Q01DX005 (ip), vehicle: saline with Tween-80 103 % of control | dose: 240.0 mg/kg/injection, schedule: Q01DX005 (ip), vehicle: saline with Tween-80 103 % of control

CCOC(=O)/C(=C\c1cccc(OC)c1OC)CC(=O)O
inactive: [1] 102 % of control | [2] 107 % of control | [3] 98 % of control | [4] 112 % of control | [5] 111 % of control

Oc1cc(Cl)c(O)c(-c2ccccc2)c1Cl
inactive: [11] 102 % of control | [12] 102 % of control | [13] 90 % of control

CN(C)c1ccc2nc3c(C(=O)O)cc(=O)c(O)c-3oc2c1
inactive: [16] 103 % of control | [20] 108 % of control

CCOC(=O)[C]1([Sn]([CH3])([CH3])[CH3])N=NC(C(=O)OC)=C1C(=O)OC (centres undefined)
inactive: dose: 0.78 mg/kg/injection, schedule: Q01DX009 (ip), vehicle: saline 98 % of control | dose: 1.56 mg/kg/injection, schedule: Q01DX009 (ip), vehicle: saline 89 % of control

CC(=O)NS(=O)(=O)c1ccc(NN=Nc2ccccc2Cl)cc1
inactive: [16] 95 % of control | [20] 94 % of control | [21] 97 % of control

C=CCCc1ccccc1/C=N/NS(=O)(=O)c1ccc(C)cc1
inactive: dose: 100.0 mg/kg/injection, schedule: Q01DX001 (ip), vehicle: saline with Tween-80 97 % of control | dose: 200.0 mg/kg/injection, schedule: Q01DX001 (ip), vehicle: saline with Tween-80 88 % of control | dose: 400.0 mg/kg/injection, schedule: Q01DX001 (ip), vehicle: saline with Tween-80 101 % of control

Cc1ccc(S(=O)(=O)NC(=O)NC(C)Cc2ccccc2)cc1 (centres undefined)
inactive: [22] 102 % of control | dose: 25.0 mg/kg/injection, schedule: Q01DX009 (ip), vehicle: saline with Tween-80 100 % of control | [23] 101 % of control and 105 % of control | [24] 98 % of control

CCNCC(O)c1ccc(F)cc1 (centres undefined)
inactive: [17] 101 % of control | [18] 96 % of control | [19] 91 % of control

O=C1C2OC2C(=O)C2C3C=CC(C3)C12 (centres undefined)
inactive: dose: 75.0 mg/kg/injection, schedule: Q04DX002 (ip), vehicle: saline with Tween-80 99 % of control | dose: 150.0 mg/kg/injection, schedule: Q04DX002 (ip), vehicle: saline with Tween-80 96 % of control | dose: 300.0 mg/kg/injection, schedule: Q04DX002 (ip), vehicle: saline with Tween-80 95 % of control

CC(=N\[O-])/C(C)=N/O.CC(=N\[O-])/C(C)=N/O.CC(=O)[O-].CC(=O)[O-].O.[Rh+2].[Rh+2]
inactive: dose: 6.25 mg/kg/injection, schedule: Q01DX009 (ip), vehicle: saline with Tween-80 123 % of control | [22] 119 % of control

CC1(C)N=C(N)N=C(N)N1NC(=O)c1cccc(Cl)c1
inactive: dose: 50.0 mg/kg/injection, schedule: Q04DX003 (ip), vehicle: saline 110 % of control | dose: 100.0 mg/kg/injection, schedule: Q04DX003 (ip), vehicle: saline 100 % of control | dose: 200.0 mg/kg/injection, schedule: Q04DX003 (ip), vehicle: saline 105 % of control

CCCCC(CC)COC1CCS(=O)(=O)C1 (centres undefined)
inactive: [23] 100 % of control | [25] 101 % of control | [24] 95 % of control

Cc1cc[n+](C)c(-c2ccccc2)c1
inactive: dose: 6.25 mg/kg/injection, schedule: Q01DX009 (ip), vehicle: saline 90 % of control | [6] 104 % of control | [7] 113 % of control

CCCCCCCCCCCCCCCCCCCCCCCCC(O)C(=O)O (centres undefined) (tested in a mixture with another compound)
inactive: [14] 106 % of control | [15] 93 % of control | [11] 87 % of control and 89 % of control | [13] 87 % of control

Nc1ccc(S(=O)(=O)Nc2ccccc2O)cc1
inactive: dose: 3.12 mg/kg/injection, schedule: Q01DX001 (ip), vehicle: saline with Tween-80 99 % of control | dose: 6.25 mg/kg/injection, schedule: Q01DX001 (ip), vehicle: saline with Tween-80 106 % of control | dose: 12.5 mg/kg/injection, schedule: Q01DX001 (ip), vehicle: saline with Tween-80 97 % of control | dose: 25.0 mg/kg/injection, schedule: Q01DX001 (ip), vehicle: saline with Tween-80 94 % of control | dose: 50.0 mg/kg/injection, schedule: Q01DX001 (ip), vehicle: saline with Tween-80 100 % of control

Cc1nn(C(=S)S)c(C)c1N=Nc1ccc(Cl)cc1Cl
inactive: [11] 100 % of control | [12] 96 % of control | [13] 102 % of control

CN(C)C(=O)COC(C(=O)N(C)C)C(OCC(=O)N(C)C)C(=O)N(C)C (centres undefined)
inactive: dose: 50.0 mg/kg/injection, schedule: Q01DX005 (ip), vehicle: saline 97 % of control | dose: 100.0 mg/kg/injection, schedule: Q01DX005 (ip), vehicle: saline 95 % of control | dose: 200.0 mg/kg/injection, schedule: Q01DX005 (ip), vehicle: saline 92 % of control

CC(=O)Nc1ccc(C(=O)N2C(=N)C(C#N)=C(O)/C2=C\c2ccc(Cl)c(Cl)c2)cc1
inactive: dose: 60.0 mg/kg/injection, schedule: Q01DX005 (ip), vehicle: saline 100 % of control | dose: 120.0 mg/kg/injection, schedule: Q01DX005 (ip), vehicle: saline 100 % of control | dose: 240.0 mg/kg/injection, schedule: Q01DX005 (ip), vehicle: saline 103 % of control

COC(=O)C12CCCC1(C(=O)OC)N2N1C(=O)c2ccccc2C1=O (centres undefined)
inactive: [16] 100 % of control | [20] 100 % of control | [21] 105 % of control

COc1ccc(/C=C2\SC(=S)N(C3CC3)C2=O)cc1OC
inactive: [16] 94 % of control | [20] 88 % of control

COc1ccc(CCNC(=O)c2cc3ccccc3oc2=O)cc1OC
inactive: [23] 94 % of control | [25] 96 % of control | [24] 97 % of control

Source: PubChem BioAssay AID330 (DTP/NCI, 2004)
